Measurements from patent US9113629B2, “4-amino-6-(4-substituted-phenyl)-picolinates and 6-amino-2-(4-substituted-phenyl)-pyrimidine-4-carboxylates and their use as herbicides” (DOW AGROSCIENCES LLC, priority 2013, dated 2015).
Like-named read-outs stand apart in the source and are kept apart here.

Key:
[1] = tested on: Key Broadleaf Weed and Crop Species; assay: Post-emergent Test II herbicidal activity (Table 5); format: in vivo; conditions: post-emergence, 336 h, 14 days after application; for pest or weed control at 70 g/ha: application rate 70 g ai/ha; for pest or weed control at 140 g/ha: application rate 140 g ai/ha
In short: (§1)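 Test species were raised 7–21 d under greenhouse conditions until reaching the first or second true leaf, sprayed with formulated compound at 187 L/ha, and kept subirrigated to avoid wash-off. Fourteen days later, damage was rated visually on a 0–100% scale against untreated plants.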

[2] = tested on: Key Grass and Sedge Weeds as well as Grass Crops; assay: Post-emergent Test II herbicidal activity (Table 6); format: in vivo; conditions: post-emergence, 336 h; for pest or weed control at 70 g/ha: 70 g ai/ha; for pest or weed control at 140 g/ha: 140 g ai/ha
In short: as §1

[3] = ABUTH: velvetleaf (Abutilon theophrasti), read-out: Visual Growth Reduction (%) 14 Days After Application, ABUTH
[4] = AMARE: redroot pigweed (Amaranthus retroflexus), read-out: Visual Growth Reduction (%) 14 Days After Application, AMARE
[5] = BRSNN: oilseed-rape, canola (Brassica napus), read-out: Visual Growth Reduction (%) 14 Days After Application, BRSNN
[6] = CHEAL: lambsquarters (Chenopodium album), read-out: Visual Growth Reduction (%) 14 Days After Application, CHEAL
[7] = EPHHL: wild poinsettia (Euphorbia heterophylla), read-out: Visual Growth Reduction (%) 14 Days After Application, EPHHL
[8] = HELAN: sunflower (Helianthus annuus), read-out: Visual Growth Reduction (%) 14 Days After Application, HELAN
[9] = VIOTR: wild pansy (Viola tricolor), read-out: Visual Growth Reduction (%) 14 Days After Application, VIOTR
[10] = CYPES: yellow nutsedge (Cyperus esculentus), read-out: Visual Growth Reduction (%) 14 Days After Application, CYPES
[11] = DIGSA: crabgrass (Digitaria sanguinalis), read-out: Visual Growth Reduction (%) 14 Days After Application, DIGSA
[12] = ECHCG: barnyardgrass (Echinochloa crus-galli), read-out: Visual Growth Reduction (%) 14 Days After Application, ECHCG
[13] = ORYSA: rice (Oryza sativa), crop, read-out: Visual Growth Reduction (%) 14 Days After Application, ORYSA
[14] = SETFA: giant foxtail (Setaria faberi), read-out: Visual Growth Reduction (%) 14 Days After Application, SETFA
[15] = SORVU: grain sorghum (Sorghum vulgare), read-out: Visual Growth Reduction (%) 14 Days After Application, SORVU
[16] = TRZSS (wheat, Triticum aestivum), crop, read-out: Visual Growth Reduction (%) 14 Days After Application, TRZSS
[17] = ZEAMX: maize, corn (Zea mays), crop, read-out: Visual Growth Reduction (%) 14 Days After Application, ZEAMX

melting point: 161 °C
Structure (SMILES): Nc1cc(-c2ccc(C(F)(F)F)c(F)c2F)nc(C(=O)O)c1Cl [Compound 172, 4-amino-3-chloro-6-(2,3-difluoro-4-(trifluoromethyl)phenyl)picolinic acid]
pest or weed control at 70 g/ha [1, 3]: 95 to 100% | pest or weed control at 140 g/ha [1, 3]: 95 to 100% | pest or weed control at 70 g/ha [1, 4]: 95 to 100% | pest or weed control at 140 g/ha [1, 4]: 95 to 100% | pest or weed control at 70 g/ha [1, 5]: 75 to 84% | pest or weed control at 140 g/ha [1, 5]: 75 to 84% | pest or weed control at 70 g/ha [1, 6]: 85 to 94% | pest or weed control at 140 g/ha [1, 6]: 85 to 94% | pest or weed control at 70 g/ha [1, 7]: 95 to 100% | pest or weed control at 140 g/ha [1, 7]: 95 to 100% | pest or weed control at 70 g/ha [1, 8]: 95 to 100% | pest or weed control at 140 g/ha [1, 8]: 95 to 100% | pest or weed control at 70 g/ha [1, 9]: 45 to 59% | pest or weed control at 140 g/ha [1, 9]: 60 to 74% | pest or weed control at 70 g/ha [2, 10]: 95 to 100% | pest or weed control at 140 g/ha [2, 10]: 95 to 100% | pest or weed control at 70 g/ha [2, 11]: 75 to 84% | pest or weed control at 140 g/ha [2, 11]: 75 to 84% | pest or weed control at 70 g/ha [2, 12]: 95 to 100% | pest or weed control at 140 g/ha [2, 12]: 95 to 100% | pest or weed control at 70 g/ha [2, 13]: 0 to 29% | pest or weed control at 140 g/ha [2, 13]: 0 to 29% | pest or weed control at 70 g/ha [2, 14]: 95 to 100% | pest or weed control at 140 g/ha [2, 14]: 95 to 100% | pest or weed control at 70 g/ha [2, 15]: 75 to 84% | pest or weed control at 140 g/ha [2, 15]: 75 to 84% | pest or weed control at 70 g/ha [2, 16]: 45 to 59% | pest or weed control at 140 g/ha [2, 16]: 60 to 74% | pest or weed control at 70 g/ha [2, 17]: 95 to 100% | pest or weed control at 140 g/ha [2, 17]: 95 to 100%
